Measured values published in patent publication US11400063B2, “Early administration of low-dose colchicine after myocardial infarction” (INSTITUT DE CARDIOLOGIE DE MONTREAL, priority 2019, dated 2022).
Values joined by “and” are separate entries in the source; they are usually repeats but may differ in a detail not shown here. Identical values can stand only once.

Tested on: patients recruited within 30 days after a myocardial infarction
Test: COLCOT randomized double-blind trial, efficacy end points, colchicine 0.5 mg once daily vs placebo
Type: in vivo, human
Conditions: for Total primary endpoint events, Rate Ratio (95% CI): Negative binomial model, marginal rate ratio; for Rate of primary endpoint events per 100 patient-months: first and recurrent events
Description: We performed a randomized, double-blind trial involving patients recruited within 30 days after a myocardial infarction. The patients were randomly assigned to receive either low-dose colchicine (0.5 mg once daily) or placebo. A total of 4745 patients were enrolled; 2386 patients were assigned to the colchicine group, and 2379 to the placebo group. Patients were followed for a median of 22.6 months.
The primary efficacy end point was a composite of death from cardiovascular causes, resuscitated cardiac arrest, myocardial infarction (e.g., acute myocardial infraction or type II myocardial infarction), stroke, or urgent hospitalization for angina leading to coronary revascularization. The components of the primary end point and safety were also assessed.
COLCOT was an international multicenter, randomized, double-blinded trial that randomly assigned patients to receive either low-dose colchicine (0.5 mg once daily) or placebo. The study protocol and main results have been published (see, Tardif et al., N Engl J Med 2019). […] Main exclusion criteria were severe heart failure, reduced left ventricular ejection fraction (<35%), recent stroke (<3 months), type 2 MI, recent (<3 years) or planned coronary artery bypass graft (CABG), history of cancer (<3 years), and inflammatory bowel disease or chronic diarrhea. All patients enrolled in the trial benefited from percutaneous coronary intervention whenever indicated and guidelines-directed management of CV disease prior to randomization (see. Tardif et al., N Engl J Med 2019).
Clinical follow-up consisted of evaluations at 1 and 3 months after randomization and every 3 months thereafter. An independent clinical endpoint committee, blinded to trial-group assignment, adjudicated clinical endpoints. The trial was locally approved by the various institutional review boards, and all patients signed a written informed consent before enrollment.
The primary efficacy endpoint was a composite of CV death, resuscitated cardiac arrest, MI, stroke, or urgent hospitalization for angina requiring coronary revascularization. The secondary endpoints consisted of the components of the primary efficacy endpoint, all-cause death, and a composite of CV death, resuscitated cardiac arrest, MI, or stroke. Exploratory endpoints included all coronary revascularizations, including both elective and urgent coronary revascularizations.
The primary efficacy endpoint was a composite of cardiovascular death, MI, ischemic stroke, and urgent coronary revascularization. Secondary efficacy endpoints consisted of the components of the primary endpoint, composite of cardiovascular death, MI, and ischemic stroke, as well as deep vein thrombosis or pulmonary embolus, and atrial fibrillation (AF). To maximize consistency in pooling efficacy endpoints among trials, the primary and secondary composite efficacy and stroke endpoints in COLCOT were modified to meet the definition of primary and stroke endpoints of the LoDoCo2 trial. Therefore, adjudicated events of resuscitated cardiac arrest and non-ischemic stroke in COLCOT were excluded from the pooled primary endpoint. The component endpoint of stroke was also restricted to include only ischemic strokes. Incidence rates and hazards ratios (HRs) were calculated for the new primary composite endpoint and ischemic stroke endpoint using individual patient data from COLCOT.
The COLCOT trial was performed as follows. A randomized, double-blind trial involving patients recruited within 30 days after a myocardial infarction was performed. The patients were randomly assigned to receive either low-dose colchicine (0.5 mg once daily) or placebo. A total of 4745 patients were enrolled; 2386 patients were assigned to the colchicine group, and 2379 to the placebo group. […]

[1] = COLCOT endpoint modified to LoDoCo2 definition
[2] = intention-to-treat population, listed as colchicine
[3] = intention-to-treat, colchicine vs placebo
[4] = intention-to-treat, colchicine vs placebo, listed as colchicine

COc1cc2c(c(OC)c1OC)-c1ccc(OC)c(=O)cc1[C@@H](NC(C)=O)CC2 [Colchicine, colchicine]
Total number of primary endpoint events (first and recurrent) (52949 patient-months of follow-up): 154
Primary efficacy composite endpoint, no. of patients with event/total no. of patients (All patients): 131/2366
Total primary endpoint events, Hazard Ratio (95% CI) (Andersen-Gill model): 0.69 (0.54; 0.88)
Primary composite outcome (cardiovascular mortality, myocardial infarction, ischemic stroke, urgent revascularization), Events % [1]: (5.5%)
Primary composite outcome (cardiovascular mortality, myocardial infarction, ischemic stroke, urgent revascularization), HR (95% CI) [1]: 0.77 (0.61-0.97)
Primary composite outcome (cardiovascular mortality, myocardial infarction, ischemic stroke, urgent revascularization), Events N (COLCOT endpoint modified to LoDoCo2 definition, N = 2366): 130 N
Ischemic stroke, Events % (COLCOT, only ischemic strokes): 0.2%
Ischemic stroke, Events N (COLCOT, only ischemic strokes): 4 N
Ischemic stroke, HR (95% CI) (COLCOT, only ischemic strokes): 0.25 (0.08-0.75)
Ischemic stroke, HR (95% CI) (COLCOT, only ischemic strokes, listed as colchicine): 0.25
Number of patients with 0 primary endpoint events per patient (N = 2366): 2235
Number of patients with 1 primary endpoint event per patient (N = 2366): 111
Number of patients with 2 primary endpoint events per patient (N = 2366): 18
Number of patients with 3 primary endpoint events per patient (N = 2366): 1
Number of patients with 4 primary endpoint events per patient (N = 2366): 1
Total primary endpoint events, Rate Ratio (95% CI): 0.66 (0.51; 0.86)
Total primary endpoint events, Rate Ratio (95% CI) (listed as colchicine): 0.66
Total primary endpoint events, Hazard Ratio (95% CI) (WLW model, 1st Event): 0.77 (0.61; 0.96)
Total primary endpoint events, Hazard Ratio (95% CI) (WLW model, 2nd Event): 0.73 (0.48; 1.11)
Total primary endpoint events, Hazard Ratio (95% CI) (WLW model, 3rd Event): 0.64 (0.37; 1.10)
Total primary endpoint events, Hazard Ratio (95% CI) (WLW model, Average): 0.77 (0.61; 0.96)
Rate of primary endpoint events per 100 patient-months: 0.29 per 100 patient-months
Rate of primary endpoint events per 100 patient-months (listed as colchicine): 029 per 100 patient-months
Atrial fibrillation, number of patients (intention-to-treat population): 36 number
Atrial fibrillation, percent of patients (intention-to-treat population): (1.5) percent
Death from cardiovascular causes, number of patients (intention-to-treat population): 20 number
Death, number of patients (intention-to-treat population): 43 number
Death, percent of patients (intention-to-treat population): (1.8) percent
Deep venous thrombosis or pulmonary embolus, number of patients (intention-to-treat population): 10 number
Deep venous thrombosis or pulmonary embolus, percent of patients (intention-to-treat population): (0.4) percent
Myocardial infarction, number of patients (intention-to-treat population): 89 number
Resuscitated cardiac arrest, number of patients (intention-to-treat population): 5 number
Resuscitated cardiac arrest, percent of patients (intention-to-treat population): (0.2) percent
Secondary composite end point, percent of patients (intention-to-treat population): (4.7) percent
Stroke, number of patients (intention-to-treat population): 5 number
Stroke, percent of patients (intention-to-treat population): (0.2) percent
Urgent hospitalization for angina leading to revascularization, number of patients (intention-to-treat population): 25 number
Primary composite end point, number of patients (intention-to-treat population, N = 2366, median follow-up 22.6 months): 131 number
Primary composite end point, percent of patients [2]: 5.5%
Secondary composite end point, percent of patients [2]: 4.7%
Atrial fibrillation, Hazard Ratio (95% CI) [3]: 0.93 (0.59-1.46)
Death from cardiovascular causes, Hazard Ratio (95% CI) [3]: 0.84 (0.46-1.52)
Death, Hazard Ratio (95% CI) [3]: 0.98 (0.64-1.49)
Deep venous thrombosis or pulmonary embolus, Hazard Ratio (95% CI) [3]: 1.43 (0.54-3.75)
Myocardial infarction, Hazard Ratio (95% CI) [3]: 0.91 (0.68-1.21)
Primary composite end point, Hazard Ratio (95% CI) [3]: 0.77 (0.61-0.96)
Resuscitated cardiac arrest, Hazard Ratio (95% CI) [3]: 0.83 (0.25-2.73)
Secondary composite end point, Hazard Ratio (95% CI) [3]: 0.85 (0.66-1.10)
Stroke, Hazard Ratio (95% CI) [3]: 0.26 (0.10-0.70)
Urgent hospitalization for angina leading to revascularization, Hazard Ratio (95% CI) [3]: 0.50 (0.31-0.81) and 0.50 (0.31.-0.81)
Death from cardiovascular causes, Hazard Ratio (95% CI) [4]: 0.84
Myocardial infarction, Hazard Ratio (95% CI) [4]: 0.91
Primary composite end point, Hazard Ratio (95% CI) [4]: 0.77
Resuscitated cardiac arrest, Hazard Ratio (95% CI) [4]: 0.83
Secondary composite end point, Hazard Ratio (95% CI) [4]: 0.85
Stroke, Hazard Ratio (95% CI) [4]: 0.26
Urgent hospitalization for angina leading to revascularization, Hazard Ratio (95% CI) [4]: 0.50
Secondary composite end point, number of patients (intention-to-treat, death from cardiovascular causes, resuscitated cardiac arrest, myocardial infarction, and stroke): 111 number
reduction of the risk of ischemic CV events (main COLCOT results, post-MI setting): 23%
Time to first primary endpoint, Adjusted Hazard Ratio (95% CI) (multivariable Cox regression model, colchicine vs. placebo, 4745 observations): 0.78 (0.62-0.98)
MI, % of patients (per-protocol population): (3.4%)
MI, no. of patients (per-protocol population): 77 no.
Primary endpoint, % of patients (per-protocol population): (5.1%)
